Test results reported in patent publication US11666547B2, “Methods for treating cognitive deficits in a subject having schizophrenia, bipolar disorder, or psychiatric depression, and exhibiting cognitive deficits by administering an antagonist of the Na+-K+-2Cl-cation-chloride cotransporter isoform 1 (NKCC1)” (NORTHWESTERN UNIVERSITY, priority 2019, dated 2023).

Tests used:
[1] = test system: pyramidal neurons of the infralimbic cortex (ILC) of scPCP mice; test: GABAA reversal potential (EGABA), perforated patch recordings in acute mPFC slices; format: cell-based; conditions: bumetanide 0.3 mg/kg ip 30-40 min before dissection, 10 uM perfused into mPFC slice in incubation and recording chambers
Experimental: FIG. 4. (A) Left Panels: Example traces of GABAA current response by electrical stimulation in mPFC pyramidal neurons in control (top panel, black) and in scPCP (bottom, red). Bipolar electrode was put in layer 1, 100-200 um apart from recording site within layer2/3 with presence of 3 mM kynurenic acid to block any glutamatergic synaptic currents. The response was evoked by the same size of single stimulus (0.2-1 mA, 0.2 ms) at five different holding voltages (−100, −80, −60, −40, −20 mV) for each neuron. For each voltage, a neuron was tested multiple times and those 5-10 traces tested at the same voltage were averaged later for peak analysis. […] Right Panels: Example GABAA reversal potential (EGABA) of a neuron in control (top panel, black) and in scPCP (bottom, red) calculated from traces shown in (A). For the individual neuron, the peak size of current responses was measured (maximal current peak if the evoked response is positive while minimal current peak if negative) and plotted by holding voltages. […] Dotted gray lines to present average resting potentials for each group, which were measured by whole-cell patch recordings from separated neuron groups (each n>7). […] Dotted gray lines represent the resting potentials, which were measured by whole-cell patch recordings in different sets of experiment (each n>7). […]

16p11.2DUP mice [2] = test: Y maze in 16p11.2 duplication mouse model; format: in vivo; conditions: 0.1 mg/kg, ip, p<0.001
Excerpt: (§1) (See Yamasaki et al., “Alpha-CaMKII deficiency causes immature dentate gyrus, a novel candidate endophenotype of psychiatric disorders,” Molecular Brain, 1 (2008) 6; and McCarthy et al., “Microduplications of 16p11.2 are associated with schizophrenia,” Nat. Gene., 41 (2009) 1223-1227; respectively). Both models are relevant to human conditions. CaMK2A loss causes cognitive dysfunction and has been implication in psychiatric disorders including schizophrenia. (See Yamasaki et al., “Alpha-CaMKII deficiency causes immature dentate gyrus, a novel candidate endophenotype of psychiatric disorders,” Molecular Brain, 1 (2008) 6; Kool et al., “CAMK2-dependent Signaling in Neurons is Essential for Survival,” J. Neuroscience: the official journal of the Society for Neuroscience, 39 (2019) 5424-5439; and Papaleo et al., “Mouse models of genetic effects on cognition: relevance to schizophrenia,” Neuropharmacology, 62 (2012) 1204-1220). […] (See Niarchou et al., “Psychiatric disorders in children with 16p11.2 deletion and duplication,” Translational psychiatry, 9 (2019) 8). […] (FIG. 9).

PCP treated mouse = test: Social interaction in the PCP treated mouse; format: in vivo
CaMK2A+/- mice [3] = test: Y maze in CaMK2A+/- mouse model; format: in vivo; conditions: 0.1 mg/kg, ip, p<0.001
Excerpt: as §1

scPCP-treated mice = test: PCP- and amphetamine-induced increase in locomotor activity in scPCP-treated mice; format: in vivo; conditions: bumetanide 0.3 mg/ml, icy
Excerpt: This can be interpreted as evidence for ability to treat delusions and hallucinations in psychotic disorders, including schizophrenia, major depression, bipolar disorder, various dementias, including vascular dementia and other neurodegenerative disorders. These finding have immediate translational value, as bumetanide is an already approved drug that could be promptly used to improve cognition in patients with cognitive impairment, psychosis, or negative symptoms in the disorders cited above.

[4] = test system: PCP model of cognitive impairment; test: Prevention of development of cognitive impairment, given prior to PCP treatment; format: in vivo, mice; conditions: given prior to one week's treatment with PCP
Excerpt: Bumetanide prevented the development of cognitive impairment when give prior to one weeks treatment with PCP. This is evidence that bumetanide could prevent the onset of cognitive impairment in schizophrenia and bipolar disorder. […] The discovery of these synergistic actions which will have value in the treatment of many neuropsychiatric disorders. Neurosteroids such as allopregnanolone is a GABA A agonist which could be used clinically with bumetanide to treat post-partum depression, other forms of depression.

16p11.2DUP mice [5] = test: Novel object recognition in 16p11.2 duplication mouse model; format: in vivo; conditions: 0.1 mg/kg, ip, p<0.001
Excerpt: as §1

CaMK2A+/- mice [6] = format: in vivo; conditions: for Discrimination index, rescue of NOR deficit, single agent at the dose used in the combination: CaMKIIα+/- mice, agent alone
Excerpt: as §1

[7] = test system: scPCP-treated mice subjected to chronic unpredictable stress; test: Memory deficit in scPCP-treated mice subjected to chronic unpredictable stress (CUS); format: in vivo; conditions: chronic unpredictable stress 21 days, 0.1 mg/kg
Excerpt: Bumetanide acts by blocking the NKCC1 cation-chloride cotransporter and causes the reversal potential of the GABAA-mediated current to become more hyperpolarized (thus the inhibitory effect becomes stronger). […] Most importantly, in-vivo administration of bumetanide rescues cognitive function in PCP mice and also prevents enduring deficit of cognitive function.

scPCP mice = test: Novel object recognition (NOR) test in subchronic phencyclidine (scPCP) mice; format: in vivo, C57BL/6J mice; conditions: for Discrimination index, novel object recognition (rescue of scPCP-induced NOR deficit): male C57BL/6J mice
Experimental: FIG. 7. Bumetanide treatment rescues the cognitive impairment in scPCP mice. Discrimination index calculated from novel object recognition tests. […] 10 mice were measured for each experimental group.
FIG. 8. Bumetanide rescues Novel Object Recognition task in female scPCP mice. […] Data are from 9 mice per group. One-way ANOVA followed by post-hoc bonferroni correction was done where significance was observed. p<0.01. (Additional data not shown).
To begin filling this gap, here we took advantage of the subchronic phencyclidine (scPCP) treatment, which is a well-established established rodent model of cognitive deficits in schizophrenia (Jentsch and Roth, 1999; Steeds et al. 2015) and performed patch clamp recordings from pyramidal neurons in acute slices of the IL cortex (ILC) and PL cortex (PLC). (FIG. 1).
Routine for mPFC recording. 3 week-old mice were injected with saline (vehicle) or PCP (0.1 mg/kg) two times a day for 7 consecutive days and rested for another 7 days without injections. They were then sacrificed for recordings within 7 days.

Row | SMILES | GABAA reversal potential in layer 2/3 and layer 5 of ILC [1] | Y maze performance (16p11.2DUP mice [2]) | Social interaction (PCP treated mouse) | Y maze performance (CaMK2A+/- mice [3]) | PCP-induced increase in locomotor activity (scPCP-treated mice; PCP 10 mg/kg) | Amphetamine-induced increase in locomotor activity (scPCP-treated mice; amphetamine 2.5 mg/kg) | Development of cognitive impairment [4] | NOR performance (16p11.2DUP mice [5]) | NOR performance (CaMK2A+/- mice [6]; CaMK2A+/- mice, 0.1 mg/kg, ip, p<0.001) | Discrimination index, rescue of NOR deficit, single agent at the dose used in the combination (CaMK2A+/- mice [6]) | Memory deficit [7] | Performance in the novel object recognition task (scPCP mice; PCP-treated mice, oral administration of a single dose (FIG. 7)) | Novel Object Recognition test (rescue of scPCP-induced deficits) (scPCP mice; female C57BL/6J mice, single dose IP, p<0.01) | Discrimination index, novel object recognition (rescue of scPCP-induced NOR deficit) (scPCP mice; 0.1 mg/kg, ip) | Discrimination index, novel object recognition (rescue of scPCP-induced NOR deficit) (scPCP mice; 0.3 mg/ml, icy)
1 | CCCCNc1cc(C(=O)O)cc(S(N)(=O)=O)c1Oc1ccccc1 [bumetanide] | normalizes | completely rescued | effective | completely rescued | significantly blocked | significantly blocked | prevented | completely rescued | completely rescued | sub-effective | significantly rescued | completely rescues | significantly rescued | completely rescues | completely rescues
2 | Cc1nc2n(c(=O)c1CCN1CCC(c3noc4cc(F)ccc34)CC1)CCCC2 [risperidone] | – | – | – | – | – | – | – | – | – | ineffective | – | – | – | – | –
